Reference: PubChem BioAssay AID268 (DTP/NCI, 2004)
Several values for one entry are separate records, joined by “and”; a condition that tells them apart may be missing. Equal entries are not always repeated.

Tested on: CD2F1 mice, P1798 lymphosarcoma sc, tumor weight T/C
Test: NCI In Vivo Anticancer Drug Screen. Data for tumor model P1798 Lymphosarcoma (subcutaneous) in CD2F1 (CDF1) mice
Details: endpoint: mean tumor weight, higher = larger tumour
Method: The antitumor activity of compounds was measured in mice bearing transplantable tumors. Survival or tumor size were measured and the results are expressed as the measurement made in the treated group (T) divided by the measurement made in the vehicle treated control group (C). The tumor model used in this assay is P1798 Lymphosarcoma (subcutaneous) in CD2F1 (CDF1) mice

[1] = dose: 6.25 mg/kg/injection, schedule: Q01DX010 (sc), vehicle: steriod suspending solution
[2] = dose: 50.0 mg/kg/injection, schedule: Q01DX010 (ip), vehicle: saline
[3] = dose: 100.0 mg/kg/injection, schedule: Q01DX010 (ip), vehicle: saline
[4] = dose: 12.5 mg/kg/injection, schedule: Q01DX010 (ip), vehicle: saline
[5] = dose: 25.0 mg/kg/injection, schedule: Q01DX010 (ip), vehicle: saline
[6] = dose: 2.5 mg/kg/injection, schedule: Q01DX010 (ip), vehicle: saline
[7] = dose: 30.0 mg/kg/injection, schedule: Q01DX010 (ip), vehicle: saline
[8] = dose: 120.0 mg/kg/injection, schedule: Q01DX010 (ip), vehicle: saline

COc1cc([C@@H]2c3cc4c(cc3[C@H](O)[C@H]3COC(=O)[C@H]23)OCO4)cc(OC)c1OC
T/C (dose: 0.9 mg/kg/injection, schedule: Q01DX011 (ip), vehicle: carboxymethylcellulose (CMC)): 56 % of control
T/C (dose: 1.7 mg/kg/injection, schedule: Q01DX011 (ip), vehicle: carboxymethylcellulose (CMC)): 111 % of control
T/C (dose: 2.2 mg/kg/injection, schedule: Q01DX011 (ip), vehicle: carboxymethylcellulose (CMC)): 80 % of control

CC(=O)OCC(=O)[C@@]1(O)CC[C@H]2[C@@H]3CCC4=CC(=O)[C@H](C)C[C@]4(C)[C@@]3(F)[C@@H](O)C[C@@]21C
T/C (dose: 3.75 mg/kg/injection, schedule: Q01DX Z (sc), vehicle: steriod suspending solution): 94 % of control
T/C [1]: 111 % of control
T/C (dose: 6.25 mg/kg/injection, schedule: Q02DX010 (sc), vehicle: steriod suspending solution): 94 % of control
T/C (dose: 7.5 mg/kg/injection, schedule: Q01DX Z (sc), vehicle: steriod suspending solution): 111 % of control
T/C (dose: 12.5 mg/kg/injection, schedule: Q01DX005 (sc), vehicle: steriod suspending solution): 38 % of control
T/C (dose: 12.5 mg/kg/injection, schedule: Q02DX010 (sc), vehicle: steriod suspending solution): 101 % of control
T/C (dose: 15.0 mg/kg/injection, schedule: Q01DX Z (sc), vehicle: steriod suspending solution): 74 % of control
T/C (dose: 25.0 mg/kg/injection, schedule: Q01DX005 (sc), vehicle: steriod suspending solution): 5 % of control
T/C (dose: 25.0 mg/kg/injection, schedule: Q01DX010 (sc), vehicle: steriod suspending solution): 1 % of control and 2 % of control and 26 % of control
T/C (dose: 25.0 mg/kg/injection, schedule: Q02DX010 (sc), vehicle: steriod suspending solution): 89 % of control
T/C (dose: 30.0 mg/kg/injection, schedule: Q01DX Z (sc), vehicle: steriod suspending solution): 74 % of control
T/C (dose: 50.0 mg/kg/injection, schedule: Q01DX005 (sc), vehicle: steriod suspending solution): 2 % of control
T/C (dose: 60.0 mg/kg/injection, schedule: Q01DX Z (sc), vehicle: steriod suspending solution): 88 % of control
T/C (dose: 100.0 mg/kg/injection, schedule: Q01DX005 (sc), vehicle: steriod suspending solution): 1 % of control

CS(=O)(=O)OCCCl
T/C (dose: 9.4 mg/kg/injection, schedule: Q01DX010 (ip), vehicle: saline): 155 % of control
T/C (dose: 18.8 mg/kg/injection, schedule: Q01DX010 (ip), vehicle: saline): 171 % of control
T/C (dose: 37.5 mg/kg/injection, schedule: Q01DX010 (ip), vehicle: saline): 186 % of control
T/C (dose: 75.0 mg/kg/injection, schedule: Q01DX010 (ip), vehicle: saline): 86 % of control

CC(=O)NCCCCCCNCCCCCCNC(C)=O
T/C [2]: 99 % of control
T/C [3]: 92 % of control
T/C (dose: 200.0 mg/kg/injection, schedule: Q01DX010 (ip), vehicle: saline): 102 % of control
T/C (dose: 400.0 mg/kg/injection, schedule: Q01DX010 (ip), vehicle: saline): 80 % of control

CC(=O)Nc1ccc(/C=N/Nc2ccc([N+](=O)[O-])cn2)cc1
T/C (dose: 62.5 mg/kg/injection, schedule: Q01DX010 (ip), vehicle: saline): 66 % of control
T/C (dose: 125.0 mg/kg/injection, schedule: Q01DX010 (ip), vehicle: saline): 75 % of control
T/C (dose: 250.0 mg/kg/injection, schedule: Q01DX010 (ip), vehicle: saline): 16 % of control

COc1ccc2c(c1)CC[C@@H]1[C@@H]2CC[C@@]2(C)[C@H]1CC[C@@]2(O)C(F)=C(F)F
T/C (dose: 111.0 mg/kg/injection, schedule: Q01DX010 (sc), vehicle: steriod suspending solution): 12 % of control
T/C (dose: 167.0 mg/kg/injection, schedule: Q01DX010 (sc), vehicle: steriod suspending solution): 9 % of control
T/C (dose: 250.0 mg/kg/injection, schedule: Q01DX010 (sc), vehicle: steriod suspending solution): 10 % of control
T/C (dose: 375.0 mg/kg/injection, schedule: Q01DX010 (sc), vehicle: steriod suspending solution): 8 % of control

O[C@H](CN1CC1)[C@@H](O)CN1CC1
T/C (dose: 62.5 micrograms/kg/injection, schedule: Q01DX010 (ip), vehicle: saline): 76 % of control
T/C (dose: 125.0 micrograms/kg/injection, schedule: Q01DX010 (ip), vehicle: saline): 62 % of control
T/C (dose: 250.0 micrograms/kg/injection, schedule: Q01DX010 (ip), vehicle: saline): 45 % of control
T/C (dose: 500.0 micrograms/kg/injection, schedule: Q01DX010 (ip), vehicle: saline): 31 % of control

O=C(NCCCCC(NC(=O)c1ccccc1)C(=O)NCCCCCCCCCCNC(=O)C(CCCCNC(=O)c1ccccc1)NC(=O)c1ccccc1)c1ccccc1 (stereo not given)
T/C [4]: 85 % of control
T/C [5]: 93 % of control
T/C [2]: 86 % of control
T/C [3]: 90 % of control

Cn1cnc([N+](=O)[O-])c1Sc1nc(N)nc2nc[nH]c12
T/C [6]: 69 % of control
T/C (dose: 5.0 mg/kg/injection, schedule: Q01DX010 (ip), vehicle: saline): 75 % of control
T/C (dose: 10.0 mg/kg/injection, schedule: Q01DX010 (ip), vehicle: saline): 57 % of control
T/C (dose: 20.0 mg/kg/injection, schedule: Q01DX010 (ip), vehicle: saline): 54 % of control

CC(=O)NCCSC(=O)C(=O)SCCNC(C)=O
T/C [5]: 111 % of control
T/C [2]: 104 % of control
T/C [3]: 110 % of control

NC1(C(=O)O)CCCC1
T/C (dose: 22.5 mg/kg/injection, schedule: Q01DX010 (ip), vehicle: saline): 40 % of control and 48 % of control
T/C (dose: 45.0 mg/kg/injection, schedule: Q01DX010 (ip), vehicle: saline): 21 % of control and 38 % of control
T/C (dose: 90.0 mg/kg/injection, schedule: Q01DX010 (ip), vehicle: saline): 4 % of control

N#Cc1cn(C2OC(CO)C(O)C2O)c2ncnc(N)c12 (stereo not given)
T/C (dose: 0.06 mg/kg/injection, schedule: Q01DX010 (ip), vehicle: saline): 86 % of control
T/C (dose: 0.12 mg/kg/injection, schedule: Q01DX010 (ip), vehicle: saline): 61 % of control
T/C (dose: 0.25 mg/kg/injection, schedule: Q01DX010 (ip), vehicle: saline): 69 % of control and 76 % of control
T/C (dose: 0.5 mg/kg/injection, schedule: Q01DX010 (ip), vehicle: saline): 72 % of control
T/C (dose: 1.0 mg/kg/injection, schedule: Q01DX010 (ip), vehicle: saline): 68 % of control
T/C (dose: 2.0 mg/kg/injection, schedule: Q01DX010 (ip), vehicle: saline): 62 % of control

O=C(O)CCCc1ccc(N(CCCl)CCCl)cc1
T/C (dose: 1.56 mg/kg/injection, schedule: Q01DX010 (ip), vehicle: saline): 69 % of control
T/C (dose: 3.13 mg/kg/injection, schedule: Q01DX010 (ip), vehicle: saline): 31 % of control and 52 % of control
T/C (dose: 6.25 mg/kg/injection, schedule: Q01DX010 (ip), vehicle: saline): 32 % of control and 37 % of control
T/C [4]: 3 % of control

Cc1nc(N2CC2)nc(N2CC2)c1[N+](=O)[O-]
T/C (dose: 1.25 mg/kg/injection, schedule: Q01DX010 (ip), vehicle: saline): 63 % of control and 82 % of control
T/C [6]: 73 % of control and 84 % of control

CC(=O)Nc1c(Cl)cc2c(c1Cl)Cc1cc([N+](=O)[O-])ccc1-2
T/C (dose: 15.0 mg/kg/injection, schedule: Q01DX011 (ip), vehicle: carboxymethylcellulose (CMC)): 85 % of control
T/C (dose: 65.0 mg/kg/injection, schedule: Q01DX011 (ip), vehicle: carboxymethylcellulose (CMC)): 108 % of control

CCOC(C)C(/C=N/NC(N)=S)=NNC(N)=S (stereo not given)
T/C [7]: 99 % of control
T/C (dose: 60.0 mg/kg/injection, schedule: Q01DX010 (ip), vehicle: saline): 100 % of control
T/C [8]: 93 % of control

Clc1ncnc2nc[nH]c12
T/C (dose: 7.5 mg/kg/injection, schedule: Q01DX010 (ip), vehicle: saline): 91 % of control
T/C (dose: 15.0 mg/kg/injection, schedule: Q01DX010 (ip), vehicle: saline): 84 % of control and 85 % of control
T/C [7]: 102 % of control
T/C [8]: 91 % of control

CCC1=C(c2cc(Cl)c3ccccc3c2OCC(=O)O)OC(CC)(C(=O)c2cc(Cl)c3ccccc3c2OCC(=O)O)CC1 (stereo not given)
T/C (dose: 240.0 mg/kg/injection, schedule: Q01DX010 (ip), vehicle: steriod suspending solution): 74 % of control
T/C (dose: 480.0 mg/kg/injection, schedule: Q01DX010 (ip), vehicle: steriod suspending solution): 80 % of control

CC/C(=C(/CC)c1ccc(O)cc1)c1ccc(O)cc1
T/C [1]: 91 % of control and 96 % of control
T/C (dose: 100.0 mg/kg/injection, schedule: Q01DX010 (sc), vehicle: steriod suspending solution): 22 % of control and 45 % of control
